These results are taken from US7723332B2, “Aryl sulfonamides useful for modulation of the progesterone receptor” (Wyeth LLC, priority 2007, dated 2010).

One assay deals with alkaline phosphatase activity in T47D cells. Nature of the assay: Effects of progestins and antiprogestins on alkaline phosphatase activity in T47D cells. The class given is cell-based. The settings on record: Homo sapiens, T47D, 24 h; reference antiprogestin, in the presence of 1 nM progesterone; typical value. On the procedure: Effects of Progestins and Antiprogestins on Alkaline Phosphatase Activity in T47D Cells
This example was performed to identify progestins or antiprogestins by determining a compound's effect on alkaline phosphatase activity in T47D cells.
Culture medium: DMEM:F12 (1:1) (GIBCO, BRL) supplemented with 5% (v/v) charcoal stripped fetal bovine serum (not heat-inactivated), 100 U/mL penicillin, 100 μg/mL streptomycin, and 2 mM the GlutaMax™ reagent (GIBCO, BRL).
Alkaline phosphatase assay buffer: • I. 0.1M Tris-HCl, pH 9.8, containing 0.2% the Triton® X-100 reagent • II. 0.1 M Tris-HCl, pH 9.8, containing 4 mM p-nitrophenyl phosphate (Sigma).
Frozen T47D cells were thawed in a 37° C. water bath and diluted to 280,000 cells/mL in culture medium. To each well in a 96-well plate (Falcon, Becton Dickinson Labware), 180 μL of diluted cell suspension was added. Twenty μL of reference or test compounds diluted in the culture medium was then added to each well. When testing for progestin antagonist activity, reference antiprogestins or test compounds were added in the presence of 1 nM progesterone. The cells were incubated at 37° C. in a 5% CO2/humidified atmosphere for 24 hours. NOTE: For high throughput screening, one concentration of each compound was tested at 0.3 μg/mL. Based on an average molecular weight of 300 g/mol for the compounds in the library, the concentration was approximately 1 μM. Subsequently, active compounds were tested in dose response assays to determine EC50 and IC50.
At the end of treatment, the medium was removed from the plate. Fifty μL of assay buffer I was added to each well. The plates were shaken in a titer plate shaker for 15 minutes. 150 μL of assay buffer II was then added to each well. Optical density measurements were taken at 5 minute intervals for 30 minutes at a test wavelength of 405 nm.
For reference and test compounds, a dose response curve was generated for dose (X-axis) vs. the rate of enzyme reaction (slope) (Y-axis). Square root-transformed data was used for analysis of variance and nonlinear dose response curve fitting for both agonist and antagonist modes. Huber weighting was used to down-weight the effects of outliners. EC50 or IC50 values were calculated from the retransformed values. JMP software (SAS Institute, Inc.) was used for both one-way analysis of variance and non-4 linear dose response analysis in both single dose and dose response studies.
Progesterone and trimegestone are reference progestins known in the art and typically show an EC50 of about 0.1 nM to about 2.0 nM.
One may read the IC50 as the midpoint of a concentration-inhibition curve. Consider `CC#C[C@]1(O)CC[C@H]2[C@@H]3CCC4=CC(=O)CCC4=C3[C@@H](c3ccc(N(C)C)cc3)C[C@@]21C` [RU486, reference compound], for which the IC50 was in the range of 0.0001 to 0.002 µM.

Staying with this assay, now noted: Homo sapiens, T47D; reference progestins, agonist mode; typical values.
As usually defined, the EC50 is the concentration at which the effect is half-maximal. Read a high EC50 as weaker potency. In turn, `CC(=O)[C@H]1CC[C@H]2[C@@H]3CCC4=CC(=O)CC[C@]4(C)[C@H]3CC[C@]12C` [Progesterone] registered an EC50 of 0.0001 to 0.002 µM.

The same assay, now with this note: Homo sapiens; T47D alkaline phosphatase assay; antagonist mode in the presence of 1 nM progesterone; 24 hours.
`CC(C)NS(=O)(=O)c1ccc(-c2ccc(C#N)n2C)cc1` [Example 5, 4-(5-cyano-1-methyl-1H-pyrrol-2-yl)-N-isopropylbenzenesulfonamide]: the IC50 was found to be 0.0275 µM.
Same read-out and setting: for `CCN(CC)S(=O)(=O)c1ccc(-c2ccc(C#N)n2C)c(F)c1` [Example 34, 4-(5-cyano-1-methyl-1H-pyrrol-2-yl)-N,N-diethyl-3-fluorobenzenesulfonamide] the value was 0.0656 µM; for `Cn1c(C#N)ccc1-c1ccc(S(=O)(=O)NCC(F)(F)F)cc1` [Example 16, 4-(5-cyano-1-methyl-1H-pyrrol-2-yl)-N-(2,2,2-trifluoroethyl)benzenesulfonamide], 0.0408 µM.
The same measure, in the same setting: in the case of `Cn1c(C#N)ccc1-c1ccc(S(=O)(=O)NCC2CC2)cc1` [Example 17, 4-(5-cyano-1-methyl-1H-pyrrol-2-yl)-N-(cyclopropylmethyl)benzenesulfonamide] it was 0.0276 µM; in that of `Cn1c(C#N)ccc1-c1ccc(S(=O)(=O)N2CCOCC2)cc1` [Example 12, 1-methyl-5-[4-(morpholin-4-ylsulfonyl)phenyl]-1H-pyrrole-2-carbonitrile], 0.189 µM.
For `Cn1c(C#N)ccc1-c1ccc(S(=O)(=O)n2cccc2)cc1` [Example 18, 1-methyl-5-[4-(1H-pyrrol-1-ylsulfonyl)phenyl]-1H-pyrrole-2-carbonitrile], the half-maximal inhibitory concentration (IC50) turned out to be 0.0481 µM.
Still for that read-out and setting: in the case of `Cn1c(C#N)ccc1-c1ccc(S(=O)(=O)N2CCCC2)cc1` [Example 10, 1-methyl-5-[4-(pyrrolidin-1-ylsulfonyl)phenyl]-1H-pyrrole-2-carbonitrile] it was 0.146 µM.
Same read-out and setting: in the case of `CCN(CC)S(=O)(=O)c1ccc(-c2ccc(C#N)n2C)cc1F` [Example 41, 4-(5-cyano-1-methyl-1H-pyrrol-2-yl)-N,N-diethyl-2-fluorobenzenesulfonamide] it was 0.0622 µM; in that of `Cn1c(C#N)ccc1-c1ccc(S(=O)(=O)NC2CC2)c(OC(F)(F)F)c1` [Example 54, 4-(5-cyano-1-methyl-1H-pyrrol-2-yl)-N-cyclopropyl-2-(trifluoromethoxy)benzenesulfonamide], 0.0717 µM.
As to `Cn1c(C#N)ccc1-c1ccc(S(=O)(=O)N2CCCC2)cc1F` [Example 37, 5-[2-fluoro-4-(pyrrolidin-1-ylsulfonyl)phenyl]-1-methyl-1H-pyrrole-2-carbonitrile], the half-maximal inhibitory concentration (IC50) is 0.151 µM.
Same read-out and setting: for `Cn1c(C#N)ccc1-c1ccc(S(N)(=O)=O)cc1` [Example 63, 4-(5-cyano-1-methyl-1H-pyrrol-2-yl)benzenesulfonamide] the value was 0.0995 µM; for `CC(C)NS(=O)(=O)c1cc(F)c(-c2ccc(C#N)n2C)cc1F` [Example 60, 4-(5-cyano-1-methyl-1H-pyrrol-2-yl)-2,5-difluoro-N-isopropylbenzenesulfonamide], 0.0493 µM; for `CC(C)NS(=O)(=O)c1ccc(-c2ccc(C#N)n2C)cc1F` [Example 42, 4-(5-cyano-1-methyl-1H-pyrrol-2-yl)-2-fluoro-N-isopropylbenzenesulfonamide], 0.0481 µM.
Still for that read-out and setting: for `CCN(CC)S(=O)(=O)c1ccc(-c2ccc(C#N)n2C)cc1C(F)(F)F` [Example 22, 4-(5-cyano-1-methyl-1H-pyrrol-2-yl)-N,N-diethyl-2-(trifluoromethyl)benzenesulfonamide] the value was 0.0804 µM.
The same measure, in the same setting: in the case of `Cn1c(C#N)ccc1-c1ccc(S(=O)(=O)NC2CC2)cc1` [Example 14, 4-(5-cyano-1-methyl-1H-pyrrol-2-yl)-N-cyclopropylbenzenesulfonamide] it was 0.0066 µM.
Regarding `CN(C)S(=O)(=O)c1ccc(-c2ccc(C#N)n2C)cc1C(F)(F)F` [Example 20, 4-(5-cyano-1-methyl-1H-pyrrol-2-yl)-N,N-dimethyl-2-(trifluoromethyl)benzenesulfonamide], the IC50 amounted to 0.0819 µM.
Consider `Cn1c(C#N)ccc1-c1ccc(S(N)(=O)=O)c(OC(F)(F)F)c1` [Example 46, 4-(5-cyano-1-methyl-1H-pyrrol-2-yl)-2-(trifluoromethoxy)benzenesulfonamide], for which the IC50 amounted to 0.0758 µM.
On to `Cn1c(C#N)ccc1-c1ccc(S(N)(=O)=O)c(C(F)(F)F)c1` [Example 19, 4-(5-cyano-1-methyl-1H-pyrrol-2-yl)-2-(trifluoromethyl)benzenesulfonamide], for which the IC50 came out at 0.0358 µM.
For the molecule `CCCNS(=O)(=O)c1ccc(-c2ccc(C#N)n2C)cc1` [Example 4, 4-(5-cyano-1-methyl-1H-pyrrol-2-yl)-N-propylbenzenesulfonamide], the IC50 is 0.0238 µM.
The same measure, in the same setting: for `Cn1c(C#N)ccc1-c1ccc(S(=O)(=O)NCC2CC2)cc1F` [Example 39, 4-(5-cyano-1-methyl-1H-pyrrol-2-yl)-N-(cyclopropylmethyl)-3-fluorobenzenesulfonamide] the value was 0.0404 µM.
Same read-out and setting: for `Cn1c(C#N)ccc1-c1ccc(S(=O)(=O)NC2CCC2)c(F)c1` [Example 45, 4-(5-cyano-1-methyl-1H-pyrrol-2-yl)-N-cyclobutyl-2-fluorobenzenesulfonamide] the value was 0.0994 µM; for `CCN(C)S(=O)(=O)c1ccc(-c2ccc(C#N)n2C)cc1` [Example 7, 4-(5-cyano-1-methyl-1H-pyrrol-2-yl)-N-ethyl-N-methylbenzenesulfonamide], 0.0661 µM; for `CCNS(=O)(=O)c1ccc(-c2ccc(C#N)n2C)cc1` [Example 3, 4-(5-cyano-1-methyl-1H-pyrrol-2-yl)-N-ethylbenzenesulfonamide], 0.0114 µM.
On the same count and under the same terms, in the case of `Cn1c(C#N)ccc1-c1ccc(S(=O)(=O)NCC2CC2)c(OC(F)(F)F)c1` [Example 55, 4-(5-cyano-1-methyl-1H-pyrrol-2-yl)-N-(cyclopropylmethyl)-2-(trifluoromethoxy)benzenesulfonamide] it was 0.0123 µM; in that of `Cn1c(C#N)ccc1-c1ccc(S(=O)(=O)N2CCCCC2)cc1` [Example 11, 1-methyl-5-[4-(piperidin-1-ylsulfonyl)phenyl]-1H-pyrrole-2-carbonitrile], 0.132 µM; in that of `CCNS(=O)(=O)c1ccc(-c2ccc(C#N)n2C)c(F)c1` [Example 33, 4-(5-cyano-1-methyl-1H-pyrrol-2-yl)-N-ethyl-3-fluorobenzenesulfonamide], 0.0131 µM.
As to `CC(C)CNS(=O)(=O)c1ccc(-c2ccc(C#N)n2C)cc1` [Example 6, 4-(5-cyano-1-methyl-1H-pyrrol-2-yl)-N-isobutylbenzenesulfonamide], the IC50 was found to be 0.0479 µM.
On the same count and under the same terms, for `Cn1c(C#N)ccc1-c1ccc(S(=O)(=O)N2CCCC2)c(OC(F)(F)F)c1` [Example 53, 1-methyl-5-[4-(pyrrolidin-1-ylsulfonyl)-3-(trifluoromethoxy)phenyl]-1H-pyrrole-2-carbonitrile] the value was 0.0227 µM; for `CC(C)NS(=O)(=O)c1ccc(-c2ccc(C#N)n2C)cc1C(F)(F)F` [Example 23, 4-(5-cyano-1-methyl-1H-pyrrol-2-yl)-N-isopropyl-2-(trifluoromethyl)benzenesulfonamide], 0.0771 µM; for `Cn1c(C#N)ccc1-c1ccc(S(=O)(=O)NC2CCC2)c(C(F)(F)F)c1` [Example 29, 4-(5-cyano-1-methyl-1H-pyrrol-2-yl)-N-cyclobutyl-2-(trifluoromethyl)benzenesulfonamide], 0.017 µM.
For the molecule `Cn1c(C#N)ccc1-c1ccc(S(=O)(=O)N2CCCC2)c(C(F)(F)F)c1` [Example 26, 1-methyl-5-[4-(pyrrolidin-1-ylsulfonyl)-3-(trifluoromethyl)phenyl]-1H-pyrrole-2-carbonitrile], the half-maximal inhibitory concentration (IC50) worked out at 0.115 µM.

The assay is the same for the next values; noted with them: T47D alkaline phosphatase assay; antagonist mode in the presence of 1 nM progesterone; 24 hours.
With `Cn1c(C#N)ccc1-c1ccc(S(=O)(=O)NC2CCC2)c(OC(F)(F)F)c1` [Example 56, 4-(5-cyano-1-methyl-1H-pyrrol-2-yl)-N-cyclobutyl-2-(trifluoromethoxy)benzenesulfonamide], the “Active Dose” value is listed as 30 nM.
On the same count and under the same terms, for `Cn1c(C#N)ccc1-c1cc(F)c(S(=O)(=O)NC2CC2)cc1F` [Example 61, 4-(5-cyano-1-methyl-1H-pyrrol-2-yl)-N-cyclopropyl-2,5-difluorobenzenesulfonamide] the value was 30 nM.
